Experimental data reported in patent publication US20230135136A1, “FGFR TYROSINE KINASE INHIBITORS AND ANTI-PDI AGENTS FOR THE TREATMENT OF UROTHELIAL CARCINOMA” (Janssen Pharmaceutica NV, priority 2020, published 2023).
Like-named read-outs stand apart in the source and are kept apart here.

Legend:
[1] = test system: CD38+ T cells in the peripheral blood; details: Arm A, erdafitinib monotherapy, FIG. 7c
Description: In Phase 2, two dosing arms are explored: the erdafitinib monotherapy treatment at the starting oral dose of 8 mg (Arm A), or the combination treatment of erdafitinib and cetrelimab (Arm B).
For phase 1b, blood for immune cell profiling were collected at four time points (C1D1, C1D15, C2D1 and C3D1). For phase 2, blood was collected at six time points (C1D1, C1D15, C2D1, C2D15, C3D1 and C3D15). Blood samples were subjected to flow cytometry analysis on a real time basis. T cell activation is quantified as fold increase in the proportions of 1) CD38+CD3, CD38+CD4, or CD38+CD8 T cells out of lymphocytes or CD3 T cell populations, and 2) CD38+ cells out of CD4+ or CD8+ T cell populations, compared to the baseline proportion levels at C1D1.
(§1) Longitudinal blood samples were analyzed from DL2A (E8J cohort: Erda 8 mg+cetrelimab 240 mg), DL2B (E8RJ cohort: Erda 8 mg 28 days run-in +cetrelimab 240 mg), and DL2 (EJ cohort: Erda 8 mg with the potential dose adjustments to 9 mg depending on phosphate levels measured on C1D15+cetrelimab 240 mg) of phase 1b, and blood samples from Arm A and Arm B of phase 2.

[2] = test system: CD38+ T cells in the peripheral blood; assay: Phase 1b: flow cytometry immune cell profiling of blood, T cell activation (CD38+ T cells vs C1D1 baseline); assay type: in vivo, human; details: E8RJ cohort, at C1D15, erdafitinib treatment alone; FIG. 4C
Excerpt: Phase 1b is the dose escalation part of the study wherein two dosing cohorts (Standard Cohorts and Alternative Cohorts) of erdafitinib were explored, while cetrelimab intravenous (IV) dose was fixed. In the Standard Cohorts (DL1, DL2 or DL2A), erdafitinib and cetrelimab start concurrently from Cycle 1 Day 1 (C1D1). In the Alternative Cohorts (DL1B or DL2B), administration of erdafitinib starts on C1D1 but cetrelimab is initiated 1 cycle (4 weeks) later, on Cycle 2 Day 1 (C2D1) (also referred to as a 28-day run-in of erdafitinib).
For phase 1b, blood for immune cell profiling were collected at four time points (C1D1, C1D15, C2D1 and C3D1). […] Blood samples were subjected to flow cytometry analysis on a real time basis. T cell activation is quantified as fold increase in the proportions of 1) CD38+CD3, CD38+CD4, or CD38+CD8 T cells out of lymphocytes or CD3 T cell populations, and 2) CD38+ cells out of CD4+ or CD8+ T cell populations, compared to the baseline proportion levels at C1D1.
as §1

COc1cc(OC)cc(N(CCNC(C)C)c2ccc3ncc(-c4cnn(C)c4)nc3c2)c1 [erdafitinib, N-(3,5-dimethoxyphenyl)-N′-(1-methylethyl)-N-[3-(1-methyl-1H-pyrazol-4-yl)quinoxalin-6-yl]ethane-1,2-diamine]
extent of increase of proportion of CD38+CD8 T cells ([1]; compared with Arm B): less than that observed in Arm B | proportion of CD38+CD8 T cells [1]: increased with time | proportion of CD38+CD8 T cells [2]: dramatically increased
